The structures appear in SMILES notation. Activity calls are given as the source filed them. The rule behind the calls is not given here.

Usually IC50 stands for the concentration needed to halve the response being measured.

The first data set addresses T1, Retinoic acid receptor RXR-alpha (Homo sapiens, UniProt P19793).
T1 sequence (P19793 whole entry): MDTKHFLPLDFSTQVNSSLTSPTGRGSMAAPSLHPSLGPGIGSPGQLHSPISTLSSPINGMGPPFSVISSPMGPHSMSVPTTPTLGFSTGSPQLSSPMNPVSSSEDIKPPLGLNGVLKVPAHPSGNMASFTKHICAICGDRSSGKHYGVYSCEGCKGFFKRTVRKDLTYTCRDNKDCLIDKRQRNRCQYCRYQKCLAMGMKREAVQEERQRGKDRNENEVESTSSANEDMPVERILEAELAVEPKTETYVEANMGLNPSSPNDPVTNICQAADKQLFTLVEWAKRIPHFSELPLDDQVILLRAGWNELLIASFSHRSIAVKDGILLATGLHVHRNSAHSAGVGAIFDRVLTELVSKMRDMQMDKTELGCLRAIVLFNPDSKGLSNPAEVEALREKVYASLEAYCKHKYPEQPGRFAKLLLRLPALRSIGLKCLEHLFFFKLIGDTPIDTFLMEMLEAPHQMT
Nature of the data set: Inhibition of LG-100268-induced RXRalpha transactivation.
On to `CN1c2ccc(SCc3ccc(Cl)cc3)cc2N=C(c2ccc(C(=O)O)cc2)c2cc3c(cc21)C(C)(C)CCC3(C)C`, for which the IC50 was 1600 nM.
Take `CN1c2ccc(S(=O)(=O)N3CCOCC3)cc2N=C(c2ccc(C(=O)O)cc2)c2cc3c(cc21)C(C)(C)CCC3(C)C`: 1000 nM corresponded to half-maximal inhibition (IC50).
In turn, `COc1ccc(S(=O)(=O)c2ccc3c(c2)N=C(c2ccc(C(=O)O)cc2)c2cc4c(cc2N3C)C(C)(C)CCC4(C)C)cc1` showed a half-maximal inhibitory concentration (IC50) of 360 nM.
For `CCN1c2ccc(C(C)=O)cc2N=C(c2ccc(C(=O)O)cc2F)c2cc3c(cc21)C(C)(C)CCC3(C)C`, the IC50 was 3300 nM.
Still for that read-out and setting: with `CCN1c2ccc(C(C)=O)cc2N=C(c2ccc(C(=O)O)cc2)c2cc3c(cc21)C(C)(C)CCC3(C)C` the figure was 970 nM; with `CN1c2ccc(S(=O)(=O)N(C)C)cc2N=C(c2ccc(C(=O)O)cc2)c2cc3c(cc21)C(C)(C)CCC3(C)C`, 2200 nM.
`CCCS(=O)(=O)c1ccc2c(c1)N=C(c1ccc(C(=O)O)cc1)c1cc3c(cc1N2C)C(C)(C)CCC3(C)C` had an IC50 of 920 nM.
On the same count and under the same terms, with `CCCN1c2ccc(C#N)cc2N=C(c2ccc(C(=O)O)cc2)c2cc3c(cc21)C(C)(C)CCC3(C)C` the figure was 2100 nM.
Still for that read-out and setting: with `CN1CCN(c2ccc3c(c2)N=C(c2ccc(C(=O)O)cc2)c2cc4c(cc2N3C)C(C)(C)CCC4(C)C)CC1` the figure was 11000 nM; with `CN1c2ccc(S(=O)(=O)c3ccc(OC(F)(F)F)cc3)cc2N=C(c2ccc(C(=O)O)cc2)c2cc3c(cc21)C(C)(C)CCC3(C)C`, 240 nM; with `COc1ccc(CS(=O)(=O)c2ccc3c(c2)N=C(c2ccc(C(=O)O)cc2)c2cc4c(cc2N3C)C(C)(C)CCC4(C)C)cc1`, 1400 nM.
In turn, `CC(=O)c1ccc2c(c1)N=C(c1ccc(C(=O)O)cc1)c1cc3c(cc1N2C)C(C)(C)CCC3(C)C` showed a half-inhibitory concentration (IC50) of 1100 nM.
The compound `CN1c2ccc(S(=O)(=O)Nc3ccc(OC(F)(F)F)cc3)cc2N=C(c2ccc(C(=O)O)cc2)c2cc3c(cc21)C(C)(C)CCC3(C)C` showed an IC50 of 960 nM.
Regarding `CCCCNS(=O)(=O)c1ccc2c(c1)N=C(c1ccc(C(=O)O)cc1)c1cc3c(cc1N2C)C(C)(C)CCC3(C)C`, the IC50 came to 410 nM.
`CCN1c2ccc(C#N)cc2N=C(c2ccc(C(=O)O)c(F)c2)c2cc3c(cc21)C(C)(C)CCC3(C)C` registered an IC50 of 770 nM.
The same measure, in the same setting: for `CN1c2ccc(S(=O)(=O)N3CCCC3)cc2N=C(c2ccc(C(=O)O)cc2)c2cc3c(cc21)C(C)(C)CCC3(C)C` the value was 1000 nM; for `CN1c2ccc(N3CCOCC3)cc2N=C(c2ccc(C(=O)O)cc2)c2cc3c(cc21)C(C)(C)CCC3(C)C`, 7000 nM; for `CN1c2ccc(S(C)(=O)=O)cc2N=C(c2ccc(C(=O)O)cc2)c2cc3c(cc21)C(C)(C)CCC3(C)C`, 1700 nM.
The same measure, in the same setting: with `CCN1c2ccc(C#N)cc2N=C(c2ccc(C(=O)O)cc2)c2cc3c(cc21)C(C)(C)CCC3(C)C` the figure was 480 nM; with `COc1ccc(Sc2ccc3c(c2)N=C(c2ccc(C(=O)O)cc2)c2cc4c(cc2N3C)C(C)(C)CCC4(C)C)cc1`, 1600 nM.
`CSc1ccc2c(c1)N=C(c1ccc(C(=O)O)cc1)c1cc3c(cc1N2C)C(C)(C)CCC3(C)C` showed an IC50 of 3000 nM.
Still for that read-out and setting: with `CCN1c2ccc(C#N)cc2N=C(c2ccc(C(=O)O)cc2F)c2cc3c(cc21)C(C)(C)CCC3(C)C` the figure was 1100 nM; with `CN1c2ccc(Sc3ccc(OC(F)(F)F)cc3)cc2N=C(c2ccc(C(=O)O)cc2)c2cc3c(cc21)C(C)(C)CCC3(C)C`, 1000 nM.
Still for that read-out and setting: with `CN1c2ccc(C#N)cc2N=C(c2ccc(C(=O)O)cc2)c2cc3c(cc21)C(C)(C)CCC3(C)C` the figure was 820 nM; with `CC(=O)c1ccc2c(c1)N=C(c1ccc(C(=O)O)c(F)c1)c1cc3c(cc1N2C)C(C)(C)CCC3(C)C`, 1700 nM.
Still for that read-out and setting: for `CN1c2ccc(S(=O)(=O)Cc3ccc(Cl)cc3)cc2N=C(c2ccc(C(=O)O)cc2)c2cc3c(cc21)C(C)(C)CCC3(C)C` the value was 950 nM.
For `CN1c2ccc(C#N)cc2N=C(c2ccc(C(=O)O)c(F)c2)c2cc3c(cc21)C(C)(C)CCC3(C)C`, the midpoint of inhibition, the IC50, lay at 1200 nM.
Still for that read-out and setting: for `CN1CCN(S(=O)(=O)c2ccc3c(c2)N=C(c2ccc(C(=O)O)cc2)c2cc4c(cc2N3C)C(C)(C)CCC4(C)C)CC1` the value was 1900 nM.
For the compound `CC(=O)c1ccc2c(c1)N=C(c1ccc(C(=O)O)cc1F)c1cc3c(cc1N2C)C(C)(C)CCC3(C)C`, the IC50 stood at 4600 nM.
Compound `COc1ccc(CSc2ccc3c(c2)N=C(c2ccc(C(=O)O)cc2)c2cc4c(cc2N3C)C(C)(C)CCC4(C)C)cc1` registered an IC50 of 4900 nM.
In the case of `CNS(=O)(=O)c1ccc2c(c1)N=C(c1ccc(C(=O)O)cc1)c1cc3c(cc1N2C)C(C)(C)CCC3(C)C`, 1300 nM corresponded to half-maximal inhibition (IC50).

A further data set concerns the target T1, Retinoic acid receptor RXR-alpha. The data set can be described thus: Inhibition of 9-cis-retinoic acid-induced RXRalpha transactivation.
Compound `CN1c2ccc(SCc3ccc(Cl)cc3)cc2N=C(c2ccc(C(=O)O)cc2)c2cc3c(cc21)C(C)(C)CCC3(C)C` returned an IC50 of 670 nM.
Still for that read-out and setting: with `CN1c2ccc(S(=O)(=O)N3CCOCC3)cc2N=C(c2ccc(C(=O)O)cc2)c2cc3c(cc21)C(C)(C)CCC3(C)C` the figure was 450 nM; with `COc1ccc(S(=O)(=O)c2ccc3c(c2)N=C(c2ccc(C(=O)O)cc2)c2cc4c(cc2N3C)C(C)(C)CCC4(C)C)cc1`, 170 nM; with `CCN1c2ccc(C(C)=O)cc2N=C(c2ccc(C(=O)O)cc2F)c2cc3c(cc21)C(C)(C)CCC3(C)C`, 3000 nM.
The same measure, in the same setting: with `CCN1c2ccc(C(C)=O)cc2N=C(c2ccc(C(=O)O)cc2)c2cc3c(cc21)C(C)(C)CCC3(C)C` the figure was 790 nM.
Same read-out and setting: for `CN1c2ccc(S(=O)(=O)N(C)C)cc2N=C(c2ccc(C(=O)O)cc2)c2cc3c(cc21)C(C)(C)CCC3(C)C` the value was 2000 nM.
`CCCS(=O)(=O)c1ccc2c(c1)N=C(c1ccc(C(=O)O)cc1)c1cc3c(cc1N2C)C(C)(C)CCC3(C)C` displayed an IC50 of 450 nM.
Same read-out and setting: with `CCCN1c2ccc(C#N)cc2N=C(c2ccc(C(=O)O)cc2)c2cc3c(cc21)C(C)(C)CCC3(C)C` the figure was 2100 nM; with `CN1c2ccc(S(=O)(=O)c3ccc(OC(F)(F)F)cc3)cc2N=C(c2ccc(C(=O)O)cc2)c2cc3c(cc21)C(C)(C)CCC3(C)C`, 130 nM.
Still for that read-out and setting: with `COc1ccc(CS(=O)(=O)c2ccc3c(c2)N=C(c2ccc(C(=O)O)cc2)c2cc4c(cc2N3C)C(C)(C)CCC4(C)C)cc1` the figure was 780 nM; with `CC(=O)c1ccc2c(c1)N=C(c1ccc(C(=O)O)cc1)c1cc3c(cc1N2C)C(C)(C)CCC3(C)C`, 890 nM; with `CN1c2ccc(S(=O)(=O)Nc3ccc(OC(F)(F)F)cc3)cc2N=C(c2ccc(C(=O)O)cc2)c2cc3c(cc21)C(C)(C)CCC3(C)C`, 460 nM.
The compound `CCCCNS(=O)(=O)c1ccc2c(c1)N=C(c1ccc(C(=O)O)cc1)c1cc3c(cc1N2C)C(C)(C)CCC3(C)C` showed an IC50 of 190 nM.
Still for that read-out and setting: with `CCN1c2ccc(C#N)cc2N=C(c2ccc(C(=O)O)c(F)c2)c2cc3c(cc21)C(C)(C)CCC3(C)C` the figure was 500 nM; with `CN1c2ccc(S(=O)(=O)N3CCCC3)cc2N=C(c2ccc(C(=O)O)cc2)c2cc3c(cc21)C(C)(C)CCC3(C)C`, 450 nM; with `CN1c2ccc(N3CCOCC3)cc2N=C(c2ccc(C(=O)O)cc2)c2cc3c(cc21)C(C)(C)CCC3(C)C`, 3900 nM.
With `CN1c2ccc(S(C)(=O)=O)cc2N=C(c2ccc(C(=O)O)cc2)c2cc3c(cc21)C(C)(C)CCC3(C)C`, the IC50 worked out at 1400 nM.
With `CCN1c2ccc(C#N)cc2N=C(c2ccc(C(=O)O)cc2)c2cc3c(cc21)C(C)(C)CCC3(C)C`, inhibition was half-maximal at 320 nM (IC50).
On the same count and under the same terms, with `COc1ccc(Sc2ccc3c(c2)N=C(c2ccc(C(=O)O)cc2)c2cc4c(cc2N3C)C(C)(C)CCC4(C)C)cc1` the figure was 720 nM; with `CSc1ccc2c(c1)N=C(c1ccc(C(=O)O)cc1)c1cc3c(cc1N2C)C(C)(C)CCC3(C)C`, 2000 nM; with `CCN1c2ccc(C#N)cc2N=C(c2ccc(C(=O)O)cc2F)c2cc3c(cc21)C(C)(C)CCC3(C)C`, 530 nM.
The same measure, in the same setting: for `CN1c2ccc(Sc3ccc(OC(F)(F)F)cc3)cc2N=C(c2ccc(C(=O)O)cc2)c2cc3c(cc21)C(C)(C)CCC3(C)C` the value was 390 nM.
In turn, `CN1c2ccc(C#N)cc2N=C(c2ccc(C(=O)O)cc2)c2cc3c(cc21)C(C)(C)CCC3(C)C` showed an IC50 of 430 nM.
Same read-out and setting: for `CC(=O)c1ccc2c(c1)N=C(c1ccc(C(=O)O)c(F)c1)c1cc3c(cc1N2C)C(C)(C)CCC3(C)C` the value was 1100 nM; for `CN1c2ccc(S(=O)(=O)Cc3ccc(Cl)cc3)cc2N=C(c2ccc(C(=O)O)cc2)c2cc3c(cc21)C(C)(C)CCC3(C)C`, 420 nM; for `CN1c2ccc(C#N)cc2N=C(c2ccc(C(=O)O)c(F)c2)c2cc3c(cc21)C(C)(C)CCC3(C)C`, 520 nM.
`CN1CCN(S(=O)(=O)c2ccc3c(c2)N=C(c2ccc(C(=O)O)cc2)c2cc4c(cc2N3C)C(C)(C)CCC4(C)C)CC1` registered an IC50 of 1000 nM.
Turning to `COc1ccc(CSc2ccc3c(c2)N=C(c2ccc(C(=O)O)cc2)c2cc4c(cc2N3C)C(C)(C)CCC4(C)C)cc1`, 5500 nM corresponded to half-maximal inhibition (IC50).
For the compound `CNS(=O)(=O)c1ccc2c(c1)N=C(c1ccc(C(=O)O)cc1)c1cc3c(cc1N2C)C(C)(C)CCC3(C)C`, half-maximal inhibition (IC50) was put at 1300 nM.

Another data set is filed under the species Mus musculus. Nature of the data set: Decrease in body weight gain in obese/diabetic KKAy mouse. The data set is classed as functional, organism-based.
Take `CCN1c2ccc(C#N)cc2N=C(c2ccc(C(=O)O)c(F)c2)c2cc3c(cc21)C(C)(C)CCC3(C)C`: the result was Active.

Another data set is filed under the species Mus musculus. The data set can be described thus: Decrease in plasma glucose concentration in obese/diabetic KKAy mouse. It is filed as ADME, organism-based.
For the compound `CCN1c2ccc(C#N)cc2N=C(c2ccc(C(=O)O)c(F)c2)c2cc3c(cc21)C(C)(C)CCC3(C)C`, the result was Active.

The species entered for a further data set is Mus musculus. Nature of the data set: Decrease in plasma insulin concentration in obese/diabetic KKAy mouse. The data set is classed as ADME, organism-based.
`CCN1c2ccc(C#N)cc2N=C(c2ccc(C(=O)O)c(F)c2)c2cc3c(cc21)C(C)(C)CCC3(C)C`: the outcome was Active.

For the origin of these results see ChEMBL document CHEMBL1146246, “Synthesis and structure-activity relationship of novel RXR antagonists: orally active anti-diabetic and anti-obesity agents” (Bioorg Med Chem Lett, 2007).
